For the experiment, the target named is 11β-HSD1 (Homo sapiens, UniProt P28845). In words: biochemical. Particulars: for IC50: IC50 Range, Biological Test Example 1, microsomes from CHO cells overexpressing human 11β-HSD1.
The mark [1] stands for this setting: read-out: Average % inhibition at 100 nM, Biological Test Example 1, 100 nM compound.
Setting [2] is: read-out: Average % inhibition at 100 nM, Biological Test Example 1, 100 nM.

Read-outs that look alike come from different tables or passages of the source.

The text below walks through data of patent publication US8575156B2, “Cyclic inhibitors of 11β-hydroxysteroid dehydrogenase 1” (Vitae Pharmaceuticals, Inc., priority 2007, dated 2013).

As a reminder, the IC50 is the concentration that inhibits the measured activity by half. A higher IC50 goes with lower potency. A word on the inhibition: it is the change of the read-out against control, counted positive when it falls.

11β-HSD1, sequence (P28845 whole entry): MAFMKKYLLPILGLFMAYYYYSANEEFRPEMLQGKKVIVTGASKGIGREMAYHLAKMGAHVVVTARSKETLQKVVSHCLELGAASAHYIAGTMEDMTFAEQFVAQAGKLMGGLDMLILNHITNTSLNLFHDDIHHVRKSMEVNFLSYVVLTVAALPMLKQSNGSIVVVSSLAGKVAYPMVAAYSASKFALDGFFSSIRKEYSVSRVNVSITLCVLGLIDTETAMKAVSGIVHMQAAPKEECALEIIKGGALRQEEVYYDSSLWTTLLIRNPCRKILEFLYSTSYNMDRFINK

Regarding `C[C@@H](c1cccc(F)c1)N1CC[C@](CCC(N)=O)(c2ccc(F)cc2)OC1=O` [EXAMPLE 288, 3-((R)-6-(4-fluorophenyl)-3-((S)-1-(3-fluorophenyl)ethyl)-2-oxo-1,3-oxazinan-6-yl)propanamide], the IC50 is under 100 nM. The inhibition at 0.1 µM under setting [1] is 72.4%.

`C[C@@H](c1cccc(C(F)(F)F)c1)N1CC[C@](CCCO)(c2ccc(F)cc2)OC1=O` [EXAMPLE 293, (R)-6-(4-fluorophenyl)-6-(3-hydroxypropyl)-3-((S)-1-(3-(trifluoromethyl)phenyl)ethyl)-1,3-oxazinan-2-one] returned an IC50 of under 100 nM. Also, the inhibition at 0.1 µM under setting [1] was found to be 94%.

`C[C@@H](c1ccc(C(F)(F)F)cc1)N1CC[C@](CCCO)(c2ccc(F)cc2)OC1=O` [EXAMPLE 294, (R)-6-(4-fluorophenyl)-6-(3-hydroxypropyl)-3-((S)-1-(4-(trifluoromethyl)phenyl)ethyl)-1,3-oxazinan-2-one] displayed an IC50 of under 100 nM. For the same compound, under setting [1], the inhibition at 0.1 µM was 97.2%.

`C[C@@H](c1cccc(C(F)(F)F)c1)N1CC[C@](CCC(N)=O)(c2ccc(F)cc2)OC1=O` [EXAMPLE 299, 3-((R)-6-(4-fluorophenyl)-2-oxo-3-((S)-1-(3-(trifluoromethyl)phenyl)ethyl)-1,3-oxazinan-6-yl)propanamide]: the IC50 is under 100 nM. The inhibition at 0.1 µM under setting [1] is 71.7%.

In turn, `COc1ccc([C@H](C)N2CC[C@](CCNS(C)(=O)=O)(c3ccc(F)cc3)OC2=O)cc1` [EXAMPLE 301, N-(2-((S)-6-(4-fluorophenyl)-3-((S)-1-(4-methoxyphenyl)ethyl)-2-oxo-1,3-oxazinan-6-yl)ethyl)methanesulfonamide] came in with a half-inhibitory concentration (IC50) of under 100 nM. Besides, the inhibition at 0.1 µM under setting [1] came out at 86.7%.

As for `C[C@@H](c1ccc(S(C)(=O)=O)cc1)N1CC[C@](CCO)(c2ccc(F)cc2)OC1=O` [EXAMPLE 308, (S)-6-(4-fluorophenyl)-6-(2-hydroxyethyl)-3-((S)-1-(4-(methylsulfonyl)phenyl)ethyl)-1,3-oxazinan-2-one], the IC50 is over 1000 nM. For the same compound, the inhibition at 0.1 µM under setting [2] is 25%. Besides, for the setting “read-out: Average % inhibition at 111.1 nM, Biological Test Example 1, 111.1 nM”, the inhibition at 0.1111 µM amounted to 8.6%.

Turning to `C[C@@H](c1ccc(-c2ccc(F)cc2)cc1)N1CC[C@](CCCOP(=O)(O)O)(c2ccccc2)OC1=O` [EXAMPLE 310, 3-((R)-3-((S)-1-(4′-fluorobiphenyl-4-yl)ethyl)-2-oxo-6-phenyl-1,3-oxazinan-6-yl)propyl dihydrogen phosphate], the IC50 is under 100 nM. Besides, the inhibition at 0.1 µM under setting [2] came to 77.5%.

In turn, `Cc1cc(-c2ccc([C@H](C)N3CC[C@](CCCO)(c4ccc(F)cc4)OC3=O)cc2)ccn1` [EXAMPLE 311, (R)-6-(4-fluorophenyl)-6-(3-hydroxypropyl)-3-((S)-1-(4-(2-methylpyridin-4-yl)phenyl)ethyl)-1,3-oxazinan-2-one] returned an IC50 of under 100 nM. The inhibition at 0.1 µM under setting [2] was 96.7%.

Compound `C[C@@H](c1ccc(CC(C)(C)O)cc1)N1CC[C@](CCCO)(c2ccccc2)OC1=O` [EXAMPLE 312, (R)-3-((S)-1-(4-(2-hydroxy-2-methylpropyl)phenyl)ethyl)-6-(3-hydroxypropyl)-6-phenyl-1,3-oxazinan-2-one] returned an IC50 of under 100 nM. Further, the inhibition at 0.1 µM (read-out: Average % inhibition at 100 nM) worked out at 85.7%.

As to `COc1ccc([C@H](C)N2CC[C@](CCCNS(C)(=O)=O)(c3ccc(F)cc3)OC2=O)cc1` [EXAMPLE 314, N-(3-((R)-6-(4-fluorophenyl)-3-((S)-1-(4-methoxyphenyl)ethyl)-2-oxo-1,3-oxazinan-6-yl)propyl)methanesulfonamide], the IC50 was under 100 nM. For the same compound, the inhibition at 0.1 µM under setting [2] was determined as 96.5%.

Take `COc1ccc([C@H](C)N2CC[C@](CCC(N)=O)(c3ccccc3)OC2=O)cc1` [EXAMPLE 315, 3-((R)-3-((S)-1-(4-methoxyphenyl)ethyl)-2-oxo-6-phenyl-1,3-oxazinan-6-yl)propanamide]: the IC50 is under 100 nM. Moreover, the inhibition at 0.1 µM under setting [2] was 93.2%.
